Assay results as given in patent US4684664A, “Derivatives of β-(4-isocyano-1,2,3,4-diepoxycyclopentyl) acrylic acid” (Kureha Kagaku Kogyo Kabushiki Kaisha, priority 1984, dated 1987).
Values after ≈ are worked out from the molar mass of the structure shown.

Legend:
Format in all cases: cell-based
[1] = system: Salmonella typhimurium IID 971; experiment: Antibacterial activity, agar-dilution MIC, organism No. 8
In short: (§1)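 Minimum inhibitory concentration determined on solid bouillon agar by the agar-dilution technique, with values stated as μg/ml.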

[2] = system: Salmonella shottmuelleri 8006; experiment: Antibacterial activity, agar-dilution MIC, organism No. 11
In short: as §1

[3] = system: Streptococcus faecium IFO 3826; experiment: Antibacterial activity, agar-dilution MIC, organism No. 27
In short: as §1

[4] = system: Bacillus subtilis ATCC 6633; experiment: Antibacterial activity, agar-dilution MIC, organism No. 14
In short: as §1

[5] = system: Escherichia coli NIHJ-JC-2; experiment: Antibacterial activity, agar-dilution MIC, organism No. 5
In short: as §1

[6] = system: Proteus rettgeri IFO 3850; experiment: Antibacterial activity, agar-dilution MIC, organism No. 22
In short: as §1

[7] = system: Pseudomonas aeruginosa NCTC 10490; experiment: Antibacterial activity, agar-dilution MIC, organism No. 16
In short: as §1

[8] = system: Salmonella paratyphi-A 1015; experiment: Antibacterial activity, agar-dilution MIC, organism No. 10
In short: as §1

Proteus vulgaris HX-19 = experiment: Antibacterial activity, agar-dilution MIC, organism No. 21
In short: as §1

Salmonella typhi 901 = experiment: Antibacterial activity, agar-dilution MIC, organism No. 9
In short: as §1

[9] = system: Micrococcus luteus ATCC 9341; experiment: Antibacterial activity, agar-dilution MIC, organism No. 25
In short: as §1

[10] = system: Aspergillus niger IFO 6342; experiment: Antifungal activity, agar-dilution MIC, organism No. 30
In short: as §1

[11] = system: Candida albicans IAM 4905; experiment: Antifungal activity, agar-dilution MIC, organism No. 29
In short: as §1

[12] = system: Enterobacter aerogenes ATCC 13048; experiment: Antibacterial activity, agar-dilution MIC, organism No. 23
In short: as §1

[13] = system: Klebsiella pneumoniae PCI-602; experiment: Antibacterial activity, agar-dilution MIC, organism No. 7
In short: as §1

[14] = system: Pseudomonas aeruginosa PAO 1; experiment: Antibacterial activity, agar-dilution MIC, organism No. 17
In short: as §1

[15] = system: Staphylococcus aureus FDA 209PJc-1; experiment: Antibacterial activity, agar-dilution MIC, organism No. 1
In short: as §1

[16] = system: Pseudomonas aeruginosa IFO 3445; experiment: Antibacterial activity, agar-dilution MIC, organism No. 15
In short: as §1

Enterobacter cloacae 963 = experiment: Antibacterial activity, agar-dilution MIC, organism No. 24
In short: as §1

[17] = system: Serratia marcescens IAM 1184; experiment: Antibacterial activity, agar-dilution MIC, organism No. 13
Excerpt: Agar-dilution method was used for determination of the antibacterial activity and antifungal activity while using bouillon-agar culture medium, and the minimum inhibitory concentration of the specimen was expressed by μg/ml of the culture medium.

[18] = system: Proteus mirabilis IFO 3849; experiment: Antibacterial activity, agar-dilution MIC, organism No. 19
In short: as §1

[19] = system: Staphylococcus aureus MS 353; experiment: Antibacterial activity, agar-dilution MIC, organism No. 3
In short: as §1

[20] = system: Salmonella enteritidis G 14; experiment: Antibacterial activity, agar-dilution MIC, organism No. 12
In short: as §1

Proteus vulgaris OX-19 = experiment: Antibacterial activity, agar-dilution MIC, organism No. 20
In short: as §1

[21] = system: Escherichia coli K12 C600 IAM 1264; experiment: Antibacterial activity, agar-dilution MIC, organism No. 6
In short: as §1

[22] = system: Staphylococcus aureus Terajima; experiment: Antibacterial activity, agar-dilution MIC, organism No. 2
In short: as §1

[23] = system: Proteus morganii IFO 3848; experiment: Antibacterial activity, agar-dilution MIC, organism No. 18
In short: as §1

[24] = system: Streptococcus pyogenes Cook; experiment: Antibacterial activity, agar-dilution MIC, organism No. 4
In short: as §1

[25] = system: Streptococcus pyogenes IFO 3340; experiment: Antibacterial activity, agar-dilution MIC, organism No. 26
In short: as §1

## [C-]#[N+]C12CC3(/C=C/C(=O)Nc4nc[nH]n4)OC3C1O2 (stereo not shown) [compound 78]
[1]; Salmonella enterica, read-out: Minimum Inhibitory Concentration
  MIC: 100 µg/mL (≈ 386 µM)
[2]; Salmonella, 8006, read-out: Minimum Inhibitory Concentration
  MIC: 50 µg/mL (≈ 193 µM)
[3]; Enterococcus faecium, IFO3826, read-out: Minimum Inhibitory Concentration
  MIC: 200 µg/mL (≈ 772 µM)
[4]; Bacillus subtilis, ATCC6633, read-out: Minimum Inhibitory Concentration
  MIC: 100 µg/mL (≈ 386 µM)
[5]; Escherichia coli, NIHJJC2, read-out: Minimum Inhibitory Concentration
  MIC: 100 µg/mL (≈ 386 µM)
[6]; Providencia rettgeri, IFO3850, read-out: Minimum Inhibitory Concentration
  MIC: 200 µg/mL (≈ 772 µM)
[7]; Pseudomonas aeruginosa, NCTC10490, read-out: Minimum Inhibitory Concentration
  MIC: > 200 µg/mL
[8]; Salmonella enterica, PARATYPHI, read-out: Minimum Inhibitory Concentration
  MIC: 50 µg/mL (≈ 193 µM)
Proteus vulgaris HX-19; Proteus vulgaris, HX19, read-out: Minimum Inhibitory Concentration
  MIC: 50 µg/mL (≈ 193 µM)
Salmonella typhi 901; Salmonella enterica, TYPHI, read-out: Minimum Inhibitory Concentration
  MIC: 25 µg/mL (≈ 96.4 µM)
[9]; Micrococcus luteus, ATCC9341, read-out: Minimum Inhibitory Concentration
  MIC: 100 µg/mL (≈ 386 µM)
[10]; Aspergillus niger, IFO6342, read-out: Minimum Inhibitory Concentration
  MIC: 200 µg/mL (≈ 772 µM)
[11]; Candida albicans, IAM4905, read-out: Minimum Inhibitory Concentration
  MIC: > 200 µg/mL
[12]; Klebsiella aerogenes, ATCC13048, read-out: Minimum Inhibitory Concentration
  MIC: > 200 µg/mL
[13]; Klebsiella pneumoniae, PCI602, read-out: Minimum Inhibitory Concentration
  MIC: 200 µg/mL (≈ 772 µM)
[14]; Pseudomonas aeruginosa, PAO1, read-out: Minimum Inhibitory Concentration
  MIC: > 200 µg/mL
[15]; Staphylococcus aureus, FDA209PJC1, read-out: Minimum Inhibitory Concentration
  MIC: 50 µg/mL (≈ 193 µM)
[16]; Pseudomonas aeruginosa, IFO3445, read-out: Minimum Inhibitory Concentration
  MIC: > 200 µg/mL
Enterobacter cloacae 963; Enterobacter cloacae, 963, read-out: Minimum Inhibitory Concentration
  MIC: > 200 µg/mL
[17]; Serratia marcescens, IAM1184, read-out: Minimum Inhibitory Concentration
  MIC: > 200 µg/mL
[18]; Proteus mirabilis, IFO3849, read-out: Minimum Inhibitory Concentration
  MIC: 200 µg/mL (≈ 772 µM)
[19]; Staphylococcus aureus, MS353, read-out: Minimum Inhibitory Concentration
  MIC: 50 µg/mL (≈ 193 µM)
[20]; Salmonella enterica, ENTERITIDIS, read-out: Minimum Inhibitory Concentration
  MIC: 50 µg/mL (≈ 193 µM)
Proteus vulgaris OX-19; Proteus vulgaris, OX19, read-out: Minimum Inhibitory Concentration
  MIC: 50 µg/mL (≈ 193 µM)
[21]; Escherichia coli, IAM1264, read-out: Minimum Inhibitory Concentration
  MIC: 100 µg/mL (≈ 386 µM)
[22]; Staphylococcus aureus, read-out: Minimum Inhibitory Concentration
  MIC: 200 µg/mL (≈ 772 µM)
[23]; Morganella morganii, IFO3848, read-out: Minimum Inhibitory Concentration
  MIC: 50 µg/mL (≈ 193 µM)
[24]; Streptococcus pyogenes, read-out: Minimum Inhibitory Concentration
  MIC: 100 µg/mL (≈ 386 µM)
[25]; Streptococcus pyogenes, IFO3340, read-out: Minimum Inhibitory Concentration
  MIC: 100 µg/mL (≈ 386 µM)

## [C-]#[N+]C12CC3(/C=C/C(=O)NC4OC(COC(C)=O)C(OC(C)=O)C(OC(C)=O)C4OC(C)=O)OC3C1O2 (stereo not shown) [compound 69]
[1]; Organism No. 8, bouillon-agar
  Minimum Inhibitory Concentration: > 200 µg/mL
[2]; Organism No. 11, bouillon-agar
  Minimum Inhibitory Concentration: > 200 µg/mL
[3]; Organism No. 27, bouillon-agar
  Minimum Inhibitory Concentration: > 200 µg/mL
[4]; Organism No. 14, bouillon-agar
  Minimum Inhibitory Concentration: > 200 µg/mL
[5]; Organism No. 5, bouillon-agar
  Minimum Inhibitory Concentration: > 200 µg/mL
[6]; Organism No. 22, bouillon-agar
  Minimum Inhibitory Concentration: > 200 µg/mL
[7]; Organism No. 16, bouillon-agar
  Minimum Inhibitory Concentration: > 200 µg/mL
[8]; Organism No. 10, bouillon-agar
  Minimum Inhibitory Concentration: 200 µg/mL
Proteus vulgaris HX-19; Organism No. 21, bouillon-agar
  Minimum Inhibitory Concentration: > 200 µg/mL
Salmonella typhi 901; Organism No. 9, bouillon-agar
  Minimum Inhibitory Concentration: > 200 µg/mL
[9]; Organism No. 25, bouillon-agar
  Minimum Inhibitory Concentration: 100 µg/mL
[10]; Organism No. 30, bouillon-agar
  Minimum Inhibitory Concentration: 100 µg/mL
[11]; Organism No. 29, bouillon-agar
  Minimum Inhibitory Concentration: 100 µg/mL
[12]; Organism No. 23, bouillon-agar
  Minimum Inhibitory Concentration: > 200 µg/mL
[13]; Organism No. 7, bouillon-agar
  Minimum Inhibitory Concentration: > 200 µg/mL
[14]; Organism No. 17, bouillon-agar
  Minimum Inhibitory Concentration: > 200 µg/mL
[15]; Organism No. 1, bouillon-agar
  Minimum Inhibitory Concentration: 100 µg/mL
[16]; Organism No. 15, bouillon-agar
  Minimum Inhibitory Concentration: > 200 µg/mL
Enterobacter cloacae 963; Organism No. 24, bouillon-agar
  Minimum Inhibitory Concentration: > 200 µg/mL
[17]; Organism No. 13, bouillon-agar
  Minimum Inhibitory Concentration: > 200 µg/mL
[18]; Organism No. 19, bouillon-agar
  Minimum Inhibitory Concentration: > 200 µg/mL
[19]; Organism No. 3, bouillon-agar
  Minimum Inhibitory Concentration: 100 µg/mL
[20]; Organism No. 12, bouillon-agar
  Minimum Inhibitory Concentration: > 200 µg/mL
Proteus vulgaris OX-19; Organism No. 20, bouillon-agar
  Minimum Inhibitory Concentration: > 200 µg/mL
[21]; Organism No. 6, bouillon-agar
  Minimum Inhibitory Concentration: > 200 µg/mL
[22]; Organism No. 2, bouillon-agar
  Minimum Inhibitory Concentration: > 200 µg/mL
[23]; Organism No. 18, bouillon-agar
  Minimum Inhibitory Concentration: > 200 µg/mL
[24]; Organism No. 4, bouillon-agar
  Minimum Inhibitory Concentration: > 200 µg/mL
[25]; Organism No. 26, bouillon-agar
  Minimum Inhibitory Concentration: 50 µg/mL
